Experimental data as given in US5976523A, “Method for healing compromised tissues using pyrimidine derivatives” (Mitsui Pharmaceuticals, Inc., priority 1995, dated 1999).
Where a name gives a salt, the structure may show the parent alone.

Tests used:
[1] = system: primary cultured gastric mucosal cells; experiment: Wound repair model with primary cultured gastric mucosal cells; format: cell-based, rabbit
Procedure: Primary cultured gastric mucosal cells were prepared by mechanically peeling and mincing the gastric mucosa of a rabbit having a body weight of 2 kg and then digesting the minced gastric mucosa with 0.07% collagenase. The primary cultured gastric mucosal cells were cultured at a cell concentration of 3.3×10^5 cells/ml in F-12 culture medium containing 10% fetal calf serum added therein. For this cultivation, a culture dish (60 mm in diameter) coated with collagen type I was used. […] Using an anti-BrdU antibody, the cells in the S phase were stained to identify proliferated cells.
Their effects on the process of restoration were measured under the above-described parameters. […] In each of the control group and the medicament-added groups, the area of the wounded region was measured at the 0th hour, 12th hour, 24th hour, 36th hour and 48th hour. The measurement results will be given in this order.
The control group and the groups added with the medicament at the respective concentrations were each subjected to the experiment with n=5. The results will each be presented as a (mean±S. D.) mm2. A test of significance was conducted relative to the control group. * stands for p<0.05, ** for p<0.01, *** for p<0.001. A further test of significance was conducted relative to a group added with 10 ng/ml of EGF. + stands for p<0.05, and ++ for <0.01.

Ito (star) cells = experiment: DNA and collagen synthesis and αSM expression in Ito (star) cells; format: cell-based, SD rat
Excerpt: (§1) As fulminant hepatitis may develop hepatocellular regeneration failure despite a high HGF concentration in blood, use of a medicament capable of enhancing effects of a growth factor is desired. Activities of a compound according to the present invention as a hepatic medicine were investigated using primary cultured cells and Ito (star) cells of rat.
On the other hand, an SD male rat of about 300 g in body weight was sacrificed by perfusion of physiological saline containing collagenase and proteinase. Ito (star) cells were collected and then spread at 1.25×10^5 cells/cm^2 over plates, followed by the initiation of cultivation. The cultivation was conducted for 6 days. In a manner similar to the procedures described above, some of the plates were added with the invention compound and [^3 H]-leucine 24 hours before harvest, while the remaining plates were added with the invention compound 24 hours before harvest and were then added with [^3 H]-tymidine two hours before the harvest. The synthesized amount of DNA and that of proteins were measured. Further, after Ito cells were cultured for 6 days, the invention compound and b-FGF were added. Subsequent to cultivation for 30 minutes, […] of ascorbic acid and 0.5 mM of β-aminopropionitrile fumarate were added, followed by cultivation for 1 hour. [2,3-^3 H]-proline (10 μCi/ml) was added, followed by further cultivation for 24 hours. The culture was separated into the culture medium and the resultant cells, and a TCA precipitate was formed. After the precipitate was dissolved with 0.1N NaOH, the cells were incubated in the presence of bacterial collagenase. The reaction was terminated with TCA-tannic acid, followed by the formation of a pellet. A supernatant fraction was added to the liquid scintillator and the amount of proteins synthesized by the cells was measured by the liquid scintillation counter.

hepatocytes = experiment: DNA and protein synthesis in primary cultured hepatocytes; format: cell-based, SD rat
Excerpt: as §1
An SD male rat of about 200 g in body weight was sacrificed by perfusion of collagenase-containing physiological saline. Hepatocytes were immediately collected and then spread at 5.0×10^4 cells/cm^2 over plates, followed by the initiation of cultivation. Two hours later, the culture medium was replaced by a fresh supply of the culture medium. Twenty-four hours later, EGF and [^3 H]-leucine (1 μCi/ml) were added to half the number of the plates with or without addition of 2-piperidino-7-methyl-6-oxo-5,6-dihydro(7H)pyrro[2,3-d]pyrimidine maleate, respectively. At the same time, EGF was added to the remaining plates with or without addition of the invention compound, respectively. Forty-six hours later, the latter plates were both added further with [^3 H]-tymidine (2 μCi/ml). Forty-eight hours later, each culture was filtered under suction to harvest the cells so cultivated. Trichloroacetic acid (TCA) was added to the thus-harvested cells to obtain a TCA precipitate. The TCA precipitate was formed into a pellet. The pellets which had been obtained from the [^3 H]-tymidine-added cultures, respectively, were each dissolved with 0.1N NaOH. The resulting solution was added to a liquid scintillator and the amount of DNA synthesized by the cells was measured by a liquid scintillation counter. Likewise, the pellets which had been obtained from the [^3 H]-leucine-added cultures, respectively, were each boiled at 70° C. to extract soluble matter. The extract so obtained was also added with TCA to obtain a TCA precipitate. The TCA precipitate was dissolved with 0.1N NaOH. The resulting solution was added to the liquid scintillator and the amount of proteins synthesized by the cells was measured by the liquid scintillation counter.

[2] = system: CAMs (chorioallantoic membranes); experiment: Angiogenesis on chorioallantoic membranes (CAM); format: in vivo, chick; conditions: day 3
Procedure: For a bFGF, various assay systems assessing the angiogenesis activity of the bFGF as an index are usable. The shells of chick embryos are fenestrated centrally corresponding to the air spaces thereof, whereby the chorioallantoic membranes (CAMS) are exposed. Solutions of the bFGF and a test medicament at various concentrations were applied onto the respective CAMs. Incubation was continued. Several days later, the degrees of angiogenesis were investigated under a microscope. This method is preferably employed. […] The test medicament is therefore found to be useful for the reduction of a time required for the construction of a skin-equivalent tissue. […] Also with respect to a VEGF, its angiogenesis activity can be assayed in a similar system.
The shells of eggs on the 10th day after fertilization were fenestrated centrally corresponding to air spaces thereof, whereby CAMs (chorioallantoic membranes) were exposed. A nylon film in the form of a square of 3 mm in side was placed over the CAM, and onto the nylon film, a solution of bFGF as a growth and/or differentiation factor or the pyrimidine compound according to the present invention was dropped in an amount of 8 ul. Incubation was continued at 38° C. On the 72nd hour, the eggs were moved to a cool place controlled at 4° C. After the eggs were left over for 2 to 3 hours there, the degree of angiogenesis in each egg was investigated under a microscope. The angiogenesis was determined based on the number of radial blood vessels equal to or larger than 0.1 mm in diameter. Onto the nylon disk placed over the CAMS, 1, 10, and 100 ng/ml solutions of recombinant human bFGF (product of Genzyme Corporation) in physiological saline and 0.01 to 1 mM solutions of the individual pyrimidine compound in physiological saline were applied singly or in combination.

bone defect (tibia) = experiment: Rat bone defect model, formation of hyaline cartilage matrix; format: in vivo; conditions: bFGF (0.5 μg) pellet, 7th day
Excerpt: Action of 2-piperazino-6-methyl-5-oxo-5,6-dihydro(7H)pyrro[3,4-d]pyrimidinemaleate on in vivo chondrogenesis was studied in detail by preparing a rat bone defect model which permits observation of bFGF-derived formation of a hyaline cartilage matrix. Embedment of a bFGF-containing pellet in a bone defect of the model permits easy observation of formation of a hyaline cartilage matrix under the periosteum around the bone defect. Rats were divided into three groups. The rats in one of the groups were each embedded in a formed bone defect (diameter: 2.6 mm) thereof with a hydroxyethyl methacrylate pellet (10 mg) which contained bFGF (0.5 μg). The rats in another one of the groups were each embedded likewise with a hydroxyethyl methacrylate pellet (10 mg) which contained bFGF (0.5 μg) and the invention compound (0.5 mg). The rats in the remaining group, that is, a control group were each embedded similarly with a pellet which contained physiological saline. After the rats in all the three groups were sacrificed seven days later, action of bFGF or the invention compound on the process of chondrogenesis on enchondral ossification around the bone defect was investigated. On the 7th day after the formation of the bone defect, the tibia of each rat was histologically examined around the bone defect.

[3] = 1 μM to 100 μM, irrespective of b-FGF

Question: Which “area of the wounded region (mean±S.D.)” value ([1]; EGF + 0.01 mM compound, 0th hour) does the source give for CN1C(=O)Cc2cnc(N3CCCCC3)nc21 [Compound A, 2-piperidino-7-methyl-6-oxo-5,6-dihydro(7H)pyrro[2,3-d]pyrimidine maleate] here?
Answer: Its value is 2.06±0.05 mm2.

Question: And the “area of the wounded region (mean±S.D.)” value ([1]; EGF + 0.01 mM compound, 12th hour)?
Answer: Its value is 0.72±0.36 mm2.

Question: And the “area of the wounded region (mean±S.D.)” value ([1]; EGF + 0.01 mM compound, 24th hour)?
Answer: The value was 0.39±0.04 mm2.

Question: What about the “area of the wounded region (mean±S.D.)” value ([1]; EGF + 0.01 mM compound, 36th hour) of the same compound?
Answer: The value was 0.05±0.04 mm2.

Question: And the “area of the wounded region (mean±S.D.)” value ([1]; EGF + 0.01 mM compound, 48th hour)?
Answer: Its value is 0 mm2.

Question: And the “area of the wounded region (mean±S.D.)” value ([1]; EGF + 0.1 mM compound, 0th hour)?
Answer: Its value is 2.08±0.08 mm2.

Question: And the “area of the wounded region (mean±S.D.)” value ([1]; EGF + 0.1 mM compound, 12th hour)?
Answer: Its value is 0.80±0.04 mm2.

Question: What about the “area of the wounded region (mean±S.D.)” value ([1]; EGF + 0.1 mM compound, 24th hour) of the same compound?
Answer: Its value is 0.24±0.05 mm2.

Question: And the “area of the wounded region (mean±S.D.)” value ([1]; EGF + 0.1 mM compound, 36th hour)?
Answer: The value was 0 mm2.

Question: What about the “area of the wounded region (mean±S.D.)” value ([1]; EGF + 0.1 mM compound, 48th hour) of the same compound?
Answer: The value was 0 mm2.

Question: And the “effect on EGF-induced acceleration of cell restoration” value ([1]; compound 0.01-0.1 mM with EGF)?
Answer: The value was “further promoted the EGF-induced acceleration of cell restoration in a concentration-dependent fashion”.

Question: What about the repairing effects ([1]; compound alone 0.01-0.1 mM, absence of EGF) of the same compound?
Answer: The repairing effects was “did not show repairing effects in the absence of EGF”.

Question: And the “synthesis of DNA by the star cells” value (Ito (star) cells; [3])?
Answer: The value was “lowered depending on the amount of the invention compound”.

Question: What about the “synthesis of collagen by the star cells” value (Ito (star) cells; [3]) of the same compound?
Answer: The value was “lowered depending on the amount of the invention compound”.

Question: And the “expression of αSM” value (Ito (star) cells; compound with b-FGF, quantity-dependent)?
Answer: The value was “allowed to recover by the addition of the invention compound in a quantity-dependent manner”.

Question: What about the “expression of α2-smooth muscle actin (αSM)” value (Ito (star) cells; compound, absence of b-FGF) of the same compound?
Answer: Its value is “lowered by the addition of the invention compound”.

Question: What about the “concentration of albumin in the supernatant” value (hepatocytes; 10 μM compound, with EGF) of the same compound?
Answer: Its value is “no change was observed”.

Question: And the “expression of mRNA (albumin)” value (hepatocytes; 10 μM compound, with EGF)?
Answer: The value was “no change was observed”.

Question: What about the “synthesis of DNA by the hepatocytes” value (hepatocytes; 10 μM compound, with EGF) of the same compound?
Answer: Its value is “significantly increased”.

Question: What about the “synthesis of DNA by the hepatocytes” value (hepatocytes; without EGF) of the same compound?
Answer: Its value is “not recognized to promote the synthesis of DNA”.

Question: With “bFGF: basic fibroblast growth factor; recombinant human bFGF (product of Genzyme Corporation) in Example 26” as the compound, how does the “expression of αSM” value (Ito (star) cells; b-FGF alone) read?
Answer: The value was “lowered by the presence of b-FGF”.

Question: And the “number of new blood vessels (M±SE)” value ([2]; bFGF alone 1 ng/ml)?
Answer: Its value is 4.1±0.4.

Question: And the “number of new blood vessels (M±SE)” value ([2]; bFGF alone 10 ng/ml)?
Answer: The value was 4.3±0.7.

Question: What about the “number of new blood vessels (M±SE)” value ([2]; bFGF alone 100 ng/ml) of the same compound?
Answer: The value was 6.1±1.1.

Question: And the “formation of a hyaline cartilage matrix” value (bone defect (tibia))?
Answer: Its value is “in a small amount”.
